Legend:
[1] = test system: DLD-1 cells, PRL-3 over-expressed colorectal cancer cell line; assay: Transwell cell migration assay; format: cell-based, human; details: for inhibition at 0.5 µM: DLD-1, 0.5 μM (FIG. 3b); for inhibition at 0.5 µM / inhibition at 5 µM: compared to DMSO-treated control; for inhibition at 5 µM: DLD-1, 5 μM (FIG. 3a)
Description: (§1) To analyze inhibitory activity against the migration and invasion of (S)-(−)-benproperine cancer cells, a cell migration and invasion assay was caned out using DLD-1 cells (ATCC-CCL-221), a PRL-3 over-expressed colorectal cancer cell line, using a transwell as described below.
(§2) First, DLD-1 cells (ATCC-CCL-221) were allowed to grow to about 90% in a culturing plate containing an RPMI medium, then removed from the medium and washed with PBS. The washed cells were treated with trypsin-EDTA and cultured in a CO2 incubator at 37° C. for […] to detach the cells. Then an RPMI medium containing 10% FBS was added thereto, and the cells were collected in a Falcon tube and centrifuged to remove the medium. The thus-obtained cells were charged with an FBS-free RPMI medium and centrifuged to remove the medium, and these step were repeated twice. The thus-obtained cells were charged with an FBS-free RPMI medium and then suspended to measure the number of cells using a hemocytometer.
(§3) Thereafter, the transwell was placed on top of a 24-well plate and charged with cells of 8×10^4 cell/200 The transwell was charged with 500 μL of an FBS-free RPMI medium containing the (S)-(−)-benproperine, prepared in Example 1, through the gap, and cultured in a CO2 incubator at 37° C. for 12 hours to 16 hours. After culturing, the transwell was turned upside down on a hand towel to remove the medium, then each well of the 24-well plate was charged with 500 μL of crystal violet (5 mg/mL in 20% MeOH). The transwell was placed back on top of the 24-well plate and incubated in a CO2 incubator for 30 minutes. The stained transwell was washed with PBS and turned upside down on a hand towel to let the remaining solution infiltrate into the hand towel. A region where the cells had not moved was labeled as the top of a film by placing a cover slip on top of the film, and the cells that had not moved were wiped off with a cotton swab. A small amount of nail polish was applied to the edge of the cover slip, and a slide glass was placed on top to fix the cover slip. The thus-prepared sample was photographed using an inverted microscope (TE 300, Nikon, Japan) with a digital camera installed, and the number of migrated cells was calculated.
Subsequently, cell migration inhibition was calculated via Mathematical Formula 1 shown below.
(§4) According to the Mathematical Formula 1 above, “the number of migrated cells in sample-treated group” refers to a number of migrated cells measured after treating DLD-1 with (S)-(−)-benproperine (S-Benp) prepared in Example 1, (R)-(+)-benproperine (R-Benp) prepared in Comparative Example 1, or a mixed racemate having a 1:1 weight ratio of (S)-(−)-benproperine to (R)-(+)-benproperine, and “the number of migrated cells in control group” refers to a number of migrated cells measured after treating DLD-1 with 1% dimethyl sulfoxide (DMSO) alone, instead of benproperine.

[2] = test system: DLD-1 cells, PRL-3 over-expressed colorectal cancer cell line; assay: Transwell cell invasion assay; format: cell-based; details: Homo sapiens; for inhibition at 1 µM: DLD-1, 1 μM (FIG. 5b); for inhibition at 1 µM / inhibition at 5 µM: compared to DMSO-treated control; for inhibition at 2 µM: DLD-1, 2 μM (FIG. 5b); for inhibition at 5 µM: DLD-1, 5 μM (FIG. 5a)
Description: as §1, §2, §3, §4

[3] = test system: normal cells of MCF10A; assay: Cytotoxicity assay (WST-1); format: cell-based; details: 5 μM, 48 hours
Description: (§5) To verify the cytotoxicity of (S)-(−)-benproperine, prepared in Example 1, DLD-1 cells (ATCC-CCL-221), a human colorectal cancer cell line, AsPc-1′ cells (ATCC-CRL-1682), a pancreatic cancer cell line, B16-BL6 cells (ATCC-CRL-6475), a melanoma cell line, and normal cells of MCF10A (ATCC-CRL-10317) were cultured in an RPM medium containing 10% fetal bovine serum (FBS) while maintaining a temperature at 37° C. and 5% CO2, and the cells were then detached from the medium using 0.05% trypsin-EDTA. Each well of a 96-well plate including the medium containing 10% FBS was inoculated with 410^3 cells, calculated with a hemocytometer, and the cells were cultured in an incubator containing 5% CO2 at 37° C.
(§6) After 24 hours, the medium of each well was replaced with a new medium containing a control group (0.1% DMSO) and 5 μM of benproperine, prepared in either of Example 1 or Comparative Example 1. The cells in the new media were then cultured in an incubator containing 5% CO2 at 37° C. for 48 hours. Each well was then charged with 10 μL of WST-1 (Roche), culturing was continued for 2 hours, and absorbance was measured at 450 nm by ELISA Reader (Bio-Rad).

[4] = test system: cancer cells (DLD-1, AsPc-1, B16-BL6); assay: Cytotoxicity assay (WST-1); format: cell-based; details: 5 μM, 48 hours
Description: as §5, §6

[5] = test system: SD type rats; assay: Acute toxicity experiment of oral administration on rats; details: rat, in vivo, po, 1000 mg/kg
Description: (§7) 6-week-old specific pathogen free SD type rats were divided into groups, where each group contains two rats. The (S)-(−)-benproperine, prepared in Example 1, was dissolved in water for injection, and orally administered to each rat once at a volume of 1000 mg/kg.

[6] = as above; details: SD, in vivo, 1000 mg/kg; rat, oral; read-out: minimum lethal oral dose (LD50)
Description: as §7

[7] = test system: MCF10A cells; assay: Transwell cell migration assay, normal cells; format: cell-based; details: 10 μM (FIG. 4)

Row | Compound | inhibition at 0.5 µM ([1]; Homo sapiens) [%] | inhibition at 2 µM ([1]; Homo sapiens, DLD-1, 2 μM (FIG. 3b)) [%] | inhibition at 5 µM ([1]; Homo sapiens) [%] | inhibition at 1 µM [2] [%] | inhibition at 2 µM [2] [%] | inhibition at 5 µM [2] [%] | cytotoxicity [3] | cytotoxicity [4] | inhibitory activity against cell migration relative to the racemate ([1]; DLD-1, 52% at 1 μM vs racemate 53% at 2 μM) | inhibition at 1 µM ([1]; Homo sapiens, DLD-1, 1 μM (FIG. 3b)) [%] | animal death [5] | clinical symptoms [5] | toxicity in weight fluctuation, hematological and blood biochemical examinations, post-mortem reports [5] | highest tested oral dose (no deaths) [6] [mg/kg] | inhibition of migration of normal cells [7]
1 | CC(COc1ccccc1Cc1ccccc1)N1CCCCC1 (racemic) [racemate, 1-[1-(2-benzylphenoxy)propan-2-yl]piperidine, reference compound] | 3 | 53 | 71 | 21 | 36 | 73 | – | – | – | – | – | – | – | – | –
2 | C[C@@H](COc1ccccc1Cc1ccccc1)N1CCCCC1 [(S)-(−)-benproperine] | 32 | – | 89 | 36 | 57 | 90 | did not exhibit the cytotoxicity | did not exhibit the cytotoxicity | twice as much inhibitory activity against the cell migration as the racemate | 52 | none died | showed noteworthy clinical symptoms | nor showed any toxicity | 1000 | did not inhibit the migration

Reference: patent US20160095845A1, “COMPOSITION COMPRISING (S)-(-)-BENPROPERINE FOR PREVENTING OR TREATING CANCER” (KOREA RESEARCH INSTITUTE OF BIOSCIENCE AND BIOTECHNOLOGY, priority 2014, published 2016)
